Test results as given in patent US20210338719A1 (SOCIETE DES PRODUITS NESTLE S.A., priority 2017, published 2021).

Assay: Oxidation of LC-PUFAs caused by iron source
Type: physicochemical
Settings: iron source in composition containing LC-PUFAs

Row | Structure (SMILES) | Oxidation of LC-PUFAs
1 | O.O=S(=O)([O-])[O-].[Fe+2] [ferrous sulphate monohydrate] | no significant oxidation of LC-PUFAs
2 | O.O.O.O.O.O.O.O=S(=O)([O-])[O-].[Fe+2] [ferrous sulphate heptahydrate] | significant oxidation of LC-PUFAs
